Read-outs that look alike come from different tables or passages of the source.
System: vGLUT1- bzw. vGLUT2-Transporter
Assay: Glutamate uptake into rat crude synaptic vesicles ([3H]-glutamate uptake)
Type: biochemical, Ratte
Settings: for VGLUT (Ratte), Hemmung [%]: test concentration not given
Description: I. Funktionelle Untersuchung an den vGLUT1- bzw. vGLUT2-Transportern
Die agonistische bzw. antagonistische Wirkung der zu untersuchenden Verbindungen am vGLUT1- bzw. vGLUT2-Transporter der Spezies Ratte kann mit folgendem Assay bestimmt werden.
Glutamat-Uptake in Rattenvesikel ('rat crude synaptic vesicles')
Die Präparation von Vesikeln wurde aus Rattengehirn-homogenaten (männlichen Ratten, Stamm Wistar SPF, 150-250 g Gewicht) durchgeführt gemäß Roseth et al. (1995) J. Neurochem. 65: 96-103, der sich auf Whittaker et al. (1964) Biochem J. 90, 293-303 und Fykse und Fonnum (1988) J. Neurochem. 50: 1237-1242 bezieht.
Hierzu wurden frisch entnommene Rattengehirne in 0,32 M Saccharose, 10 mM TRIS-maleat, 1 mM EGTA, pH 7,4 (10 ml/g Frischgewicht) mit einem Potter-Homogenisator (Fa. Braun/Melsungen; 5 Kolbenhübe bei 800 Upm) unter Eiskühlung homogenisiert und anschließend für 10 Minuten bei 3.000 g und 4°C zentrifugiert. Der resultierende Überstand wurde bei 20.000 g für 30 Minuten bei 4°C zentrifugiert. Das entstandene Pellet wurde dann im Verhältnis 1:3 mit 10 mM TRIS-maleate, 0,1 mM EGTA, pH 7,4 osmotisch geschockt und die Suspension bei 17000g für 30 min (4°C) zentrifugiert. Die im Überstand verbliebenen Vesikel wurden nun auf einen Dichtegradienten aus 0,6 M Saccharose in 10 mM TRIS-maleat, 1 mM EGTA, pH 7.4 und 0.4 M Saccharose in 10 mM TRIS-maleat, 1 mM EGTA, pH 7.4 geschichtet. Eine Ultrazentrifugation der Gradienten im Ausschwingrotor bei 65000g für 2h (4°C) schloss sich an. Die Vesikel-Fraktion wurde von der 0.4 M Saccharose-Bande isoliert und im Uptake-Versuch eingesetzt.
Die Substratlösung für den Uptake von [^3H]-Glutamat bestand aus ATP (neutralisiert mit Trisma base; 2 mM im Endansatz), Glutamat (0.5 mM im Endansatz) und ^3H-Glutamat (0.5 µCi im Endansatz). In 14 ml-Reagiergefäßen (Sarstedt, Artikel-Nr.: 798438) wurden jeweils 0,3 ml Gesamtvolumina (n=2/Probe) pipettiert in der folgenden Reihenfolge: 1.) 165 µl Inkubationspuffer (110 mM Kaliumtartrat, 10 mM TRIS-maleat, pH 7,4, 4 mM MgCl2), 2.) 10 µl Testsubstanz oder Vehikelkontrolle oder blank, 3.) 100 µl synaptische Vesikel. Es schloss sich eine Vorinkubation von 15 min bei 30°C an (nur blank-Ansätze befanden sich hierbei auf Eis). Danach wurde der Uptake durch Zugabe von 25 µl der oben beschriebenen Substratlösung gestartet. Die Reaktion wurde nach 5 min durch Zugabe von 7,0 ml eiskalter 150 mM KCI gestoppt. Anschließend wurden die Proben mit Hilfe des Brandel Cell Harvesters Typ M-24R über einen Membranfilter der Porengröße 0,8 µm abgesaugt und zweimal mit eiskalter 150 mM KCI nachgewaschen. Die Messung erfolgte am beta-Counter nach 15 h in 10 ml Szintillatorflüssigkeit (Filter Count).
Die Affinität der Verbindungen der allgemeinen Formel (I) für den vGLUT1- bzw. vGLUT2-Transporter wurde wie vorstehend beschrieben bestimmt (Pharmakologische Methoden)

[1] = compound freshly dissolved from the solid substance, read-out: VGLUT (Ratte), ICso-Fest

Row | SMILES | IC50 [1] | IC50 (read-out: VGLUT (Ratte), IC50) | VGLUT (Ratte), Hemmung [%]
1 | O=C(Nc1ccc(O)cc1C(=O)O)c1ccc(N2C(=O)c3ccc(C(=O)Nc4ccc(O)cc4C(=O)O)cc3C2=O)cc1 [Beispiel 2, 2-(4-(5-(2-Carboxy-4-hydroxyphenylcarbamoyl)-1,3-dioxoisoindolin-2-yl)benzamido)-5-hydroxybenzoesäure] | 32 nM | 94.6 nM | 98%
2 | O=C(Nc1ccc(O)cc1C(=O)O)c1ccc(N2C(=O)c3ccc(C(=O)Nc4ccc(O)cc4C(=O)O)cc3C2=O)cc1 [Beispiel 4, 2-(4-(5-(2-Carboxylato-4-hydroxyphenylcarbamoyl)-1,3-dioxoisoindolin-2-yl)-benzamido)-5-hydroxybenzoesäure, Natriumsalz] | 154 nM |  | 
3 | O=C(O)c1ccccc1N1C(=O)c2ccc(Oc3ccc(Oc4ccc5c(c4)C(=O)N(c4ccccc4C(=O)O)C5=O)cc3)cc2C1=O [Beispiel 1, 2,2'-(5,5'-(1,4-Phenylenbis(oxy))bis(1,3-dioxoisoindolin-5,2-diyl))dibenzoesäure] |  | 3810 nM | 74%
4 | O=C(Nc1ccccc1C(=O)O)c1cccc(N2C(=O)c3ccc(C(=O)Nc4ccccc4C(=O)O)cc3C2=O)c1 [Beispiel 3, 2-(3-(5-(2-Carboxyphenylcarbamoyl)-1,3-dioxoisoindolin-2-yl)benzamido)-benzoesäure] |  | 560 nM | 97%

From patent publication EP2338485A1, “Substituted 1,3-dioxoisoindolines as medicine” (Grünenthal GmbH, priority 2009, dated 2011)
